This data set is described as follows: activity coefficient (dimensionless); of the first substance listed, at infinite dilution; xn = mol fraction of the nth substance listed. The conditions noted are these: Liquid, Chromatography, x1 = 0.

Numbers after ± are expanded uncertainties.

Take `Cc1ccccc1C` [1,2-dimethylbenzene] + CCCC[N+]1(C)CCCC1.O=S(=O)([O-])C(F)(F)F: the activity coefficient (308.15 K) is 2.91 ± 0.13; the activity coefficient (318.15 K) is 2.93 ± 0.13; the activity coefficient (328.15 K) is 2.95 ± 0.13; the activity coefficient (338.15 K) was determined as 2.97 ± 0.13; the activity coefficient (348.15 K) came out at 2.99 ± 0.13; the activity coefficient (358.15 K) came to 3.01 ± 0.13. Where the note is “368.15 K”, the activity coefficient was found to be 3.03 ± 0.13.
In the case of `Cc1cccc(C)c1` [1,3-dimethylbenzene] + CCCC[N+]1(C)CCCC1.O=S(=O)([O-])C(F)(F)F, the activity coefficient is, setting by setting: (308.15 K) 3.44 ± 0.15; (318.15 K) 3.45 ± 0.15; (328.15 K) 3.47 ± 0.15; (338.15 K) 3.48 ± 0.15; (348.15 K) 3.5 ± 0.15; (358.15 K) 3.51 ± 0.15. In addition, the activity coefficient (368.15 K) was 3.53 ± 0.16.
`Cc1ccc(C)cc1` [1,4-dimethylbenzene] + CCCC[N+]1(C)CCCC1.O=S(=O)([O-])C(F)(F)F: the activity coefficient by setting is: (308.15 K) 3.32 ± 0.15; (318.15 K) 3.35 ± 0.15; (328.15 K) 3.38 ± 0.15; (338.15 K) 3.4 ± 0.15; (348.15 K) 3.43 ± 0.15; (358.15 K) 3.45 ± 0.15. Moreover, the activity coefficient (368.15 K) was determined as 3.48 ± 0.15.
`C=CCCCCC` [1-heptene] + CCCC[N+]1(C)CCCC1.O=S(=O)([O-])C(F)(F)F: the activity coefficient came to 29 ± 1.3 (298.15 K); 27.5 ± 1.2 (308.15 K); 26.1 ± 1.2 (318.15 K); 24.8 ± 1.1 (328.15 K); 23.6 ± 1 (338.15 K); 22.6 ± 1 (348.15 K). Besides, the activity coefficient (358.15 K) worked out at 21.6 ± 1 and the activity coefficient (368.15 K) was 20.8 ± 0.9.
With `C#CCCCCC` [1-heptyne] + CCCC[N+]1(C)CCCC1.O=S(=O)([O-])C(F)(F)F, the activity coefficient runs as follows: (298.15 K) 5.21 ± 0.23; (308.15 K) 5.3 ± 0.23; (318.15 K) 5.39 ± 0.24; (328.15 K) 5.47 ± 0.24; (338.15 K) 5.56 ± 0.25; (348.15 K) 5.64 ± 0.25. Also, the activity coefficient (358.15 K) amounted to 5.7 ± 0.25 and the activity coefficient (368.15 K) was found to be 5.78 ± 0.25.
In the case of `C#CCCCC` [1-hexyne] + CCCC[N+]1(C)CCCC1.O=S(=O)([O-])C(F)(F)F, the activity coefficient is 3.57 ± 0.16 (298.15 K); 3.66 ± 0.16 (308.15 K); 3.76 ± 0.17 (318.15 K); 3.85 ± 0.17 (328.15 K); 3.94 ± 0.17 (338.15 K); 4.02 ± 0.18 (348.15 K). In addition, the activity coefficient stood at 4.09 ± 0.18 (358.15 K) and 4.18 ± 0.18 (368.15 K).
For the compound `C#CCCCCCC` [1-octyne] + CCCC[N+]1(C)CCCC1.O=S(=O)([O-])C(F)(F)F, the activity coefficient turned out to be 7.56 ± 0.33 (298.15 K); 7.63 ± 0.34 (308.15 K); 7.7 ± 0.34 (318.15 K); 7.76 ± 0.34 (328.15 K); 7.83 ± 0.35 (338.15 K); 7.88 ± 0.35 (348.15 K). For the same compound, the activity coefficient is, setting by setting: (358.15 K) 7.94 ± 0.35; (368.15 K) 7.99 ± 0.35.
Turning to `C=CCCC` [1-pentene] + CCCC[N+]1(C)CCCC1.O=S(=O)([O-])C(F)(F)F, the activity coefficient runs as follows: (298.15 K) 17.6 ± 0.8; (308.15 K) 16.3 ± 0.7; (318.15 K) 15.3 ± 0.7; (328.15 K) 14.4 ± 0.6; (338.15 K) 13.5 ± 0.6; (348.15 K) 12.8 ± 0.6. The activity coefficient (358.15 K) was determined as 12.2 ± 0.5.
Consider `C#CCCC` [1-pentyne] + CCCC[N+]1(C)CCCC1.O=S(=O)([O-])C(F)(F)F, for which the activity coefficient was found to be 2.59 ± 0.11 (298.15 K); 2.66 ± 0.12 (308.15 K); 2.74 ± 0.12 (318.15 K); 2.82 ± 0.12 (328.15 K); 2.88 ± 0.13 (338.15 K); 2.95 ± 0.13 (348.15 K). The activity coefficient is 3.01 ± 0.13 (358.15 K) and 3.08 ± 0.14 (368.15 K).
Consider `COC(C)(C)C` [2-methoxy-2-methylpropane] + CCCC[N+]1(C)CCCC1.O=S(=O)([O-])C(F)(F)F, for which the activity coefficient is 5.67 ± 0.25 (298.15 K); 5.65 ± 0.25 (308.15 K); 5.64 ± 0.25 (318.15 K); 5.63 ± 0.25 (328.15 K); 5.62 ± 0.25 (338.15 K); 5.6 ± 0.25 (348.15 K). Also, the activity coefficient is, setting by setting: (358.15 K) 5.59 ± 0.25; (368.15 K) 5.58 ± 0.25.
`c1ccccc1` [benzene] + CCCC[N+]1(C)CCCC1.O=S(=O)([O-])C(F)(F)F: the activity coefficient by setting is: (298.15 K) 1.41 ± 0.06; (308.15 K) 1.44 ± 0.06; (318.15 K) 1.46 ± 0.06; (328.15 K) 1.48 ± 0.06; (338.15 K) 1.5 ± 0.06; (348.15 K) 1.53 ± 0.06. For the same compound, the activity coefficient by setting is: (358.15 K) 1.54 ± 0.06; (368.15 K) 1.56 ± 0.06.
For the compound `CCCCO` [butan-1-ol] + CCCC[N+]1(C)CCCC1.O=S(=O)([O-])C(F)(F)F, the activity coefficient (328.15 K) came to 1.49 ± 0.06; the activity coefficient (338.15 K) was 1.42 ± 0.06; the activity coefficient (348.15 K) is 1.35 ± 0.05; the activity coefficient (358.15 K) turned out to be 1.29 ± 0.05; the activity coefficient (368.15 K) worked out at 1.24 ± 0.05.
Regarding `C1CCCCCC1` [cycloheptane] + CCCC[N+]1(C)CCCC1.O=S(=O)([O-])C(F)(F)F, the activity coefficient runs as follows: (298.15 K) 29.3 ± 1.3; (308.15 K) 27 ± 1.2; (318.15 K) 24.9 ± 1.1; (328.15 K) 23.1 ± 1; (338.15 K) 21.6 ± 1; (348.15 K) 20.1 ± 0.9. In addition, the activity coefficient (358.15 K) was 18.9 ± 0.8 and the activity coefficient (368.15 K) amounted to 17.9 ± 0.8.
Consider `C1CCCCC1` [cyclohexane] + CCCC[N+]1(C)CCCC1.O=S(=O)([O-])C(F)(F)F, for which the activity coefficient reads like this: (298.15 K) 25.7 ± 1.1; (308.15 K) 23.4 ± 1; (318.15 K) 21.4 ± 1; (328.15 K) 19.7 ± 0.9; (338.15 K) 18.1 ± 0.8; (348.15 K) 16.8 ± 0.7. For the same compound, the activity coefficient stood at 15.6 ± 0.7 (358.15 K) and 14.6 ± 0.6 (368.15 K).
On to `C1CCCCCCC1` [cyclooctane] + CCCC[N+]1(C)CCCC1.O=S(=O)([O-])C(F)(F)F, for which the activity coefficient runs as follows: (298.15 K) 37.4 ± 1.7; (308.15 K) 34 ± 1.5; (318.15 K) 31.4 ± 1.4; (328.15 K) 29.1 ± 1.3; (338.15 K) 26.9 ± 1.2; (348.15 K) 25.1 ± 1.1. The activity coefficient runs as follows: (358.15 K) 23.5 ± 1; (368.15 K) 22.2 ± 1.
For the compound `C1CCCC1` [cyclopentane] + CCCC[N+]1(C)CCCC1.O=S(=O)([O-])C(F)(F)F, the activity coefficient by setting is: (298.15 K) 19.2 ± 0.9; (308.15 K) 17.4 ± 0.8; (318.15 K) 15.9 ± 0.7; (328.15 K) 14.6 ± 0.6; (338.15 K) 13.5 ± 0.6; (348.15 K) 12.6 ± 0.6. Also, the activity coefficient by setting is: (358.15 K) 11.7 ± 0.5; (368.15 K) 11 ± 0.5.
Take `CCCCCCCCCC` [decane] + CCCC[N+]1(C)CCCC1.O=S(=O)([O-])C(F)(F)F: the activity coefficient is, setting by setting: (298.15 K) 195 ± 9; (308.15 K) 174 ± 8; (318.15 K) 157 ± 7; (328.15 K) 143 ± 6; (338.15 K) 130 ± 6; (348.15 K) 120 ± 5. Besides, the activity coefficient turned out to be 110 ± 5 (358.15 K) and 101 ± 5 (368.15 K).
For the compound `CCO` [ethanol] + CCCC[N+]1(C)CCCC1.O=S(=O)([O-])C(F)(F)F, the activity coefficient by setting is: (298.15 K) 1.05 ± 0.04; (308.15 K) 1 ± 0.04; (318.15 K) 0.948 ± 0.034; (328.15 K) 0.9 ± 0.033; (338.15 K) 0.862 ± 0.032; (348.15 K) 0.827 ± 0.032. In addition, the activity coefficient by setting is: (358.15 K) 0.791 ± 0.031; (368.15 K) 0.763 ± 0.031.
Consider `CCc1ccccc1` [ethylbenzene] + CCCC[N+]1(C)CCCC1.O=S(=O)([O-])C(F)(F)F, for which the activity coefficient reads like this: (298.15 K) 3.43 ± 0.15; (308.15 K) 3.45 ± 0.15; (318.15 K) 3.46 ± 0.15; (328.15 K) 3.48 ± 0.15; (338.15 K) 3.5 ± 0.15; (348.15 K) 3.51 ± 0.15. Also, the activity coefficient is, setting by setting: (358.15 K) 3.53 ± 0.16; (368.15 K) 3.54 ± 0.16.
For `CCCCCCC` [heptane] + CCCC[N+]1(C)CCCC1.O=S(=O)([O-])C(F)(F)F, the activity coefficient (298.15 K) was 71.5 ± 3.2; the activity coefficient (308.15 K) was determined as 64.7 ± 2.9; the activity coefficient (318.15 K) amounted to 59.3 ± 2.6; the activity coefficient (328.15 K) is 54.2 ± 2.4; the activity coefficient (338.15 K) is 50.4 ± 2.2; the activity coefficient (348.15 K) amounted to 46.7 ± 2.1. Further, the activity coefficient stood at 43.3 ± 1.9 (358.15 K) and 40.8 ± 1.8 (368.15 K).
As to `C=CCCCC` [hex-1-ene] + CCCC[N+]1(C)CCCC1.O=S(=O)([O-])C(F)(F)F, the activity coefficient came out at 21.6 ± 1 (298.15 K); 20.2 ± 0.9 (308.15 K); 19.2 ± 0.9 (318.15 K); 18.1 ± 0.8 (328.15 K); 17.3 ± 0.8 (338.15 K); 16.4 ± 0.7 (348.15 K). Further, the activity coefficient is, setting by setting: (358.15 K) 15.7 ± 0.7; (368.15 K) 15 ± 0.7.
For `CCCCCC` [hexane] + CCCC[N+]1(C)CCCC1.O=S(=O)([O-])C(F)(F)F, the activity coefficient by setting is: (298.15 K) 55.8 ± 2.5; (308.15 K) 50.6 ± 2.3; (318.15 K) 46.4 ± 2.1; (328.15 K) 42.2 ± 1.9; (338.15 K) 38.8 ± 1.7; (348.15 K) 35.8 ± 1.6. The activity coefficient by setting is: (358.15 K) 33.3 ± 1.5; (368.15 K) 31.3 ± 1.4.

These data come from the NIST ThermoML archive (doi:10.1016/j.fluid.2009.01.011).
